In US8871753B2, “Macrocyclic compounds and their use as kinase inhibitors” (Incyte Corporation, priority 2008, dated 2014):
Counter-ions that a name gives are not always drawn.

How the values were obtained:
Assay type in all cases: biochemical
[1] = molecular target: T1, human JAK3 (a.a. 781-1124) (Homo sapiens, UniProt P52333); test: In vitro JAK kinase assay (HTRF, phosphorylation of a biotinylated peptide), JAK3
T1 construct: JAK3 (a.a. 781-1124); His tag (N); made in house; host or cells: insect cells (baculovirus)
Procedure: The catalytic activity of JAK1, JAK2 or JAK3 was assayed by measuring the phosphorylation of a biotinylated peptide. The phosphorylated peptide was detected by homogenous time resolved fluorescence (HTRF). […] The ATP concentration in the reactions was 90 μM for JAK1, 30 μM for JAK2 and 3 μM for JAK3. Reactions were carried out at room temperature for 1 hr and then stopped with 20 μL 45 mM EDTA, 300 nM SA-APC, 6 nM Eu-Py20 in assay buffer (Perkin Elmer, Boston, Mass.). Binding to the Europium labeled antibody took place for 40 minutes and HTRF signal was measured on a Fusion plate reader (Perkin Elmer, Boston, Mass.).
The catalytic activity of JAK1, JAK2 or JAK3 was assayed by measuring the phosphorylation of a biotinylated peptide. The phosphorylated peptide was detected by homogenous time resolved fluorescence (HTRF). […] Reactions were carried out at room temperature for 1 hr and then stopped with 20 μL 45 mM EDTA, 300 nM SA-APC, 6 nM Eu-Py20 in assay buffer (Perkin Elmer, Boston, Mass.). Binding to the Europium labeled antibody took place for 40 minutes and HTRF signal was measured on a Fusion plate reader (Perkin Elmer, Boston, Mass.).

[2] = molecular target: T2, human JAK1 (a.a. 837-1142) (Homo sapiens, UniProt P23458); test: In vitro JAK kinase assay (HTRF, phosphorylation of a biotinylated peptide), JAK1; details: read-out: JAK1 IC50
T2 construct: human JAK1 (a.a. 837-1142); His tag (N); made in house; host or cells: insect cells (baculovirus)
Outline: (§1)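 Phosphorylation of a biotinylated peptide by the JAK kinase domain, detected by HTRF with Eu-Py20 and SA-APC. ATP was 90 μM for JAK1, 30 μM for JAK2 and 3 μM for JAK3. Reactions ran 1 h at room temperature and were stopped with EDTA, followed by 40 min antibody binding.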

TYK2 = TYK2 (Homo sapiens, UniProt P29597); test: TYK2 kinase inhibition (Table A1)
[3] = molecular target: T3, human JAK2 (a.a. 828-1132) (Homo sapiens, UniProt O60674); test: In vitro JAK kinase assay (HTRF, phosphorylation of a biotinylated peptide), JAK2
T3 construct: JAK2 (a.a. 828-1132); His tag (N); made in house; host or cells: insect cells (baculovirus)
Outline: as §1

T3 sequence (O60674 828-1132): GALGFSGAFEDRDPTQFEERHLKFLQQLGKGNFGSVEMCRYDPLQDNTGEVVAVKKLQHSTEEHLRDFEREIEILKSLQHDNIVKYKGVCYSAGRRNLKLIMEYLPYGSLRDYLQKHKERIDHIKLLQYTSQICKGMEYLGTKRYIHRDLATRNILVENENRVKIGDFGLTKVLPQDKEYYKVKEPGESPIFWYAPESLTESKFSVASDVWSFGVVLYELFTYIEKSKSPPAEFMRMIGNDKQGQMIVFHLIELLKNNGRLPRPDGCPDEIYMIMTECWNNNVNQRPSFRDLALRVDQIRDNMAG
T2 sequence (P23458 849-1154): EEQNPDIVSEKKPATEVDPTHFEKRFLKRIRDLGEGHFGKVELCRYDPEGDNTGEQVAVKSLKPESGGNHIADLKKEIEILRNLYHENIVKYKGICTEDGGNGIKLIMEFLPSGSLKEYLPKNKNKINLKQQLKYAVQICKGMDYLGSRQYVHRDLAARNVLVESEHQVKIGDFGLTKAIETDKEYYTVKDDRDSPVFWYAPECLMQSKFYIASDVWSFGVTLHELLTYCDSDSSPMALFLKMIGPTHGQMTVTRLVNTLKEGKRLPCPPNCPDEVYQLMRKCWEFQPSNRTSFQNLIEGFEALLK
T1 sequence (P52333 781-1124): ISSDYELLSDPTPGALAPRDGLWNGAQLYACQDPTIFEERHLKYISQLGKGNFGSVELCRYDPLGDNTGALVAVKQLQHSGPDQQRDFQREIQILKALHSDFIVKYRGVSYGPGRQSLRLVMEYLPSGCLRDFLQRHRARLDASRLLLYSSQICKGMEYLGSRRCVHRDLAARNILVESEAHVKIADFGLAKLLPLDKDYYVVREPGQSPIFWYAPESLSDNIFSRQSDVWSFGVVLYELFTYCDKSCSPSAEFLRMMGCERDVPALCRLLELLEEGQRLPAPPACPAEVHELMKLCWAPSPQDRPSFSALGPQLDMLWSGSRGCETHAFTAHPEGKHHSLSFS
Chain of TYK2 (P29597 whole entry): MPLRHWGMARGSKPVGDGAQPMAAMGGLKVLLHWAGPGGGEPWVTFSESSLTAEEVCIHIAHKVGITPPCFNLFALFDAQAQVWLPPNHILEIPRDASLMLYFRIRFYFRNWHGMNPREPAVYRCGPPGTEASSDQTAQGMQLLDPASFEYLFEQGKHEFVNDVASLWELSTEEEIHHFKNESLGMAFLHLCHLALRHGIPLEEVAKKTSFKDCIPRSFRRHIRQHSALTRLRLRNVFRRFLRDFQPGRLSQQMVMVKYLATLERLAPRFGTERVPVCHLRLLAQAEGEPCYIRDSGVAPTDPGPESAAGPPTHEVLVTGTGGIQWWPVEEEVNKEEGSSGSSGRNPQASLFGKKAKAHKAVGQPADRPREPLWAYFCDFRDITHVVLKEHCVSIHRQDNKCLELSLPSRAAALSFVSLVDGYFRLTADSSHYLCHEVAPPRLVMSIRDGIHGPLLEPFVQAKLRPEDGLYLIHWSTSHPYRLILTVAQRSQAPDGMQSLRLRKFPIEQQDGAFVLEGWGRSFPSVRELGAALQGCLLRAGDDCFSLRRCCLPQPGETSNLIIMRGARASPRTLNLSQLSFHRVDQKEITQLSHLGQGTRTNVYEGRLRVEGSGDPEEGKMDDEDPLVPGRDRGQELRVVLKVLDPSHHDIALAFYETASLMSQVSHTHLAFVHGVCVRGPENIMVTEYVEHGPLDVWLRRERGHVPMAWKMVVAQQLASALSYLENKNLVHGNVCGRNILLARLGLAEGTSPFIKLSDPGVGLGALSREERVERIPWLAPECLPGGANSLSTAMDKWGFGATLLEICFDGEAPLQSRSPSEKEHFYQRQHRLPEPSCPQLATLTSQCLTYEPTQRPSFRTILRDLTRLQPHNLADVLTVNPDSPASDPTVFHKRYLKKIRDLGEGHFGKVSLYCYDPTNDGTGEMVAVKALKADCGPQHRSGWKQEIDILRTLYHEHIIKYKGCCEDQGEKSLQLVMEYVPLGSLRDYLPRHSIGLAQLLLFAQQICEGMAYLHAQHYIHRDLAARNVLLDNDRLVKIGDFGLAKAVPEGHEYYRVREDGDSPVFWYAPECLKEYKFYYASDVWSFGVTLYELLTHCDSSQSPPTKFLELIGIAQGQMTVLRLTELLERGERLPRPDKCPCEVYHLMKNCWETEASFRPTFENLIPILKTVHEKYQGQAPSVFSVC

IC50 [1] [nM]	IC50 [2] [nM]	IC50 (TYK2) [nM]	IC50 [3] [nM]	Compound
1070	37	39	47	Cc1nc(CC(=O)Nc2ccc3cc2CCc2cccc(c2)Nc2ncc(Cl)c(n2)N3)cs1 [Example C38, N-[6-Chloro-2,4,8,22-tetraazatetracyclo[14.3.1.1(3,7).1(9,13)]docosa-1(20),3(22),4,6,9(21),10,12,16,18-nonaen-12-yl]-2-(2-methyl-1,3-thiazol-4-yl)acetamide trifluoroacetate]
1170	112	246	65	O=C(Cc1ccccn1)Nc1ccc2cc1CCc1cccc(c1)Nc1ncc(Cl)c(n1)N2 [Example C41, N-[6-Chloro-2,4,8,22-tetraazatetracyclo[14.3.1.1(3,7).1(9,13)]docosa-1(20),3(22),4,6,9(21),10,12,16,18-nonaen-12-yl]-2-pyridin-2-ylacetamide bis(trifluoroacetate)]
1140	22	88	31	Cc1nc(C)c(CC(=O)Nc2ccc3cc2CCc2cccc(c2)Nc2ncc(Cl)c(n2)N3)s1 [Example C43, N-[6-Chloro-2,4,8,22-tetraazatetracyclo[14.3.1.1(3,7).1(9,13)]docosa-1(20),3(22),4,6,9(21),10,12,16,18-nonaen-12-yl]-2-(2,4-dimethyl-1,3-thiazol-5-yl)acetamide trifluoroacetate]

The remaining lines, values behind:

Compound	IC50 [1] [nM]	IC50 [2] [nM]	IC50 (TYK2) [nM]	IC50 [3] [nM]
O=C(Cc1ccco1)Nc1ccc2cc1CCc1cccc(c1)Nc1ncc(Cl)c(n1)N2 [Example C36, N-[6-Chloro-2,4,8,22-tetraazatetracyclo[14.3.1.1(3,7).1(9,13)]docosa-1(20),3(22),4,6,9(21),10,12,16,18-nonaen-12-yl]-2-(2-furyl)acetamide trifluoroacetate]	663	33	103	42
Cn1cc(CC(=O)Nc2ccc3cc2CCc2cccc(c2)Nc2ncc(Cl)c(n2)N3)c2ccccc21 [Example C37, N-[6-Chloro-2,4,8,22-tetraazatetracyclo[14.3.1.1(3,7).1(9,13)]docosa-1(20),3(22),4,6,9(21),10,12,16,18-nonaen-12-yl]-2-(1-methyl-1H-indol-3-yl)acetamide trifluoroacetate]	2620	496	581	276
O=C(Cc1cccnc1)Nc1ccc2cc1CCc1cccc(c1)Nc1ncc(Cl)c(n1)N2 [Example C39, N-[6-Chloro-2,4,8,22-tetraazatetracyclo[14.3.1.1(3,7).1(9,13)]docosa-1(20),3(22),4,6,9(21),10,12,16,18-nonaen-12-yl]-2-pyridin-3-ylacetamide bis(trifluoroacetate)]	1220	54	195	29
O=C(Cc1ccncc1)Nc1ccc2cc1CCc1cccc(c1)Nc1ncc(Cl)c(n1)N2 [Example C40, N-[6-Chloro-2,4,8,22-tetraazatetracyclo[14.3.1.1(3,7).1(9,13)]docosa-1(20),3(22),4,6,9(21),10,12,16,18-nonaen-12-yl]-2-pyridin-4-ylacetamide bis(trifluoroacetate)]	804	62	291	56
O=C(Cc1cccs1)Nc1ccc2cc1CCc1cccc(c1)Nc1ncc(Cl)c(n1)N2 [Example C42, N-[6-Chloro-2,4,8,22-tetraazatetracyclo[14.3.1.1(3,7).1(9,13)]docosa-1(20),3(22),4,6,9(21),10,12,16,18-nonaen-12-yl]-2-(2-thienyl)acetamide trifluoroacetate]	346	37	96	23
O=C(Cc1nc2ccccc2[nH]1)Nc1ccc2cc1CCc1cccc(c1)Nc1ncc(Cl)c(n1)N2 [Example C44, 2-(1H-Benzimidazol-2-yl)-N-[6-chloro-2,4,8,22-tetraazatetracyclo[14.3.1.1(3,7).1(9,13)]docosa-1(20),3(22),4,6,9(21),10,12,16,18-nonaen-12-yl]acetamide bis(trifluoroacetate)]	779	70	478	53
